Test results as given in patent publication US8685942B2, “Sophorolipid analog compositions” (priority 2010, dated 2014).
Values after ≈ are worked out from the molar mass of the structure shown. Read-outs that look alike come from different tables or passages of the source.

Tests used:
Phytophthoracapsici = test: Antifungal MIC, 96 well microplate, spore suspension; format: cell-based; conditions: absence of visible growth after 7 days, diluted from 2.5 to 0.0024 mg/ml
Protocol: (§1) Sophorolipid samples were dissolved in 5% ethanol solution to a final concentration of 5 mg/mL and used as a stock solution. The stock solution (100 μl) was added into a 96 well microplate and serially diluted from 2.5 mg/ml to 0.0024 mg/ml using culture medium. After serial dilution, 80 μl of fresh culture medium and 20 μl of spore suspension were added to each well and the plates were incubated for 7 days. The minimum inhibitory concentration (MIC) was determined to measure antifungal activity of sophorolipid-derived compounds. MIC values for antifungal activity were determined by absence of visible growth in the micro wells containing sophorolipid after 7 days of incubation.
as §1, §1

Rhodoccocuserythropolis = conditions: cited from earlier work
Eserichia coli = conditions: cited from earlier work
Moraxella = conditions: cited from earlier work
pathogens = test: Antifungal MIC screen, summary over the pathogen panel; format: cell-based; conditions: of the eight pathogens of Tables 2-4
Protocol: as §1, with “The hydrogenated lactonic sophorolipids have antifungal activity, which were confirmed by experiment and observations. Sophorolipid” for “Sophorolipid”, “incubation. Natural and lactonic SLs were active against four pathogens, whereas hydrogenated lactonic and acidic SLs active against three and two pathogens respectively.” for “incubation.”
as §1, with “The acidic sophorolipid esters have antifungal activity, which were confirmed by experiment and observations. Sophorolipid” for “Sophorolipid”
as §1, with “The acidic sophorolipid amide derivatives have antifungal activity, which were confirmed by experiment and observations. Sophorolipid” for “Sophorolipid”

Ralstoniaeutropha = conditions: cited from earlier work
Salmonella choleraesuis = conditions: cited from earlier work
Phytophthorainfestans = test: Antifungal MIC, 96 well microplate, spore suspension; format: cell-based; conditions: absence of visible growth after 7 days, diluted from 2.5 to 0.0024 mg/ml
Protocol: as §1, §1, §1

Alternariatomatophilia = test: as above; format: cell-based
Protocol: as §1, §1, §1

A. solani = test: as above; format: cell-based
Protocol: as §1, §1, §1

vaginal cell = conditions: cited from earlier work
Botrytis cinerea = test: Antifungal MIC, 96 well microplate, spore suspension; format: cell-based
Protocol: as §1, §1, §1

A. alternate = test: as above; format: cell-based; conditions: 168 h
Protocol: as §1, §1, §1

Fusarimoxysporium = test: as above; format: cell-based; conditions: absence of visible growth after 7 days, diluted from 2.5 to 0.0024 mg/ml
Protocol: as §1, §1, §1

[1] = Alternariatomatophilia, absence of visible growth after 7 days, diluted from 2.5 to 0.0024 mg/ml
[2] = A. solani, absence of visible growth after 7 days, diluted from 2.5 to 0.0024 mg/ml

In the case of CCOC(=O)CCCCCCC/C=C\CCCCCCC(C)OC1OC(CO)C(O)C(O)C1OC1OC(COC(C)=O)C(O)C(O)C1O (centres unmarked) [SL-E-4], the MIC (Phytophthoracapsici) is listed as 600 µg/mL (≈ 866 µM), the MIC100 (Rhodoccocuserythropolis) is listed as 6.86 µg/mL (≈ 9.9 µM) and the MIC100 (Eserichia coli) is listed as 5000 µg/mL (≈ 7220 µM). The MIC100 (Moraxella) was 20.5 µg/mL (≈ 29.6 µM), the “number of pathogens active against” value (pathogens) was “one” and the MIC100 (Ralstoniaeutropha) was 5000 µg/mL (≈ 7220 µM). For the same compound, the MIC100 (Salmonella choleraesuis) was 5000 µg/mL (≈ 7220 µM).
With CCCCOC(=O)CCCCCCC/C=C\CCCCCCC(C)OC1OC(CO)C(O)C(O)C1OC1OC(COC(C)=O)C(O)C(O)C1O (centres unmarked) [SL-E-6] the MIC (Phytophthoracapsici) was 600 µg/mL (≈ 832 µM) and the “number of pathogens active against” value (pathogens) was “one”.
In the case of CCCCCCOC(=O)CCCCCCC/C=C\CCCCCCC(C)OC1OC(CO)C(O)C(O)C1OC1OC(CO)C(O)C(O)C1O (centres unmarked) [SL-E-9], the MIC100 (Eserichia coli) is given as 1670 µg/mL (≈ 2360 µM), the MIC100 (Moraxella) is given as 1670 µg/mL (≈ 2360 µM) and the MIC100 (Ralstoniaeutropha) is given as 5000 µg/mL (≈ 7070 µM). The MIC100 (Salmonella choleraesuis) was 5000 µg/mL (≈ 7070 µM).
In the case of CCOC(=O)CCCCCCC/C=C\CCCCCCC(C)OC1OC(COC(C)=O)C(O)C(O)C1OC1OC(COC(C)=O)C(O)C(O)C1O (centres unmarked) [SL-E-5], the MIC (Phytophthoracapsici) is given as 600 µg/mL (≈ 816 µM), the MIC100 (Rhodoccocuserythropolis) is given as 5000 µg/mL (≈ 6800 µM) and the MIC100 (Eserichia coli) is given as 5000 µg/mL (≈ 6800 µM). For the same compound, the MIC100 (Moraxella) was 61.7 µg/mL (≈ 84 µM), the “number of pathogens active against” value (pathogens) was “one” and the MIC100 (Ralstoniaeutropha) was 5000 µg/mL (≈ 6800 µM). For the same compound, the MIC100 (Salmonella choleraesuis) was 5000 µg/mL (≈ 6800 µM).
CCCCOC(=O)CCCCCCC/C=C\CCCCCCC(C)OC1OC(CO)C(O)C(O)C1OC1OC(CO)C(O)C(O)C1O (centres unmarked) [SL-E-3] gave an MIC (Phytophthorainfestans) of 1250 µg/mL (≈ 1840 µM), an MIC (Alternariatomatophilia; [1]) of 150 µg/mL (≈ 221 µM) and an MIC (A. solani; [2]) of 1250 µg/mL (≈ 1840 µM). For the same compound, the “number of pathogens active against” value (pathogens) was “three”.
For CCOC(=O)CCCCCCC/C=C\CCCCCCC(C)O[C@@H]1O[C@H](COC(C)=O)[C@@H](O)[C@H](O)[C@H]1O[C@@H]1O[C@H](COC(C)=O)[C@@H](O)[C@H](O)[C@H]1O (some centres unmarked) [sophorolipid diacetate ethyl ester], the vaginal cell toxicity (vaginal cell) is given as “induces sufficient vaginal cell toxicity to raise concerns”.
CC(CCCCCC/C=C\CCCCCCCC(=O)NCCN(C)C)OC1OC(CO)C(O)C(O)C1OC1OC(CO)C(O)C(O)C1O (centres unmarked) [SL-AM-3, (Z)-17-((4,5-dihydroxy-6-(hydroxymethyl)-3-((3,4,5-trihydroxy-6-(hydroxymethyl)tetrahydro-2H-pyran-2-yl)oxy)tetrahydro-2H-pyran-2-yl)oxy)-N-(2-(dimethylamino)ethyl)-octadec-9-enamide] gave an MIC (Botrytis cinerea; 168 h) of 600 µg/mL (≈ 866 µM), an MIC (A. alternate) of 1250 µg/mL (≈ 1800 µM) and an MIC (Alternariatomatophilia; 168 h) of 300 µg/mL (≈ 433 µM). The MIC (A. solani; Alternaria solani, 168 h) was 150 µg/mL (≈ 216 µM) and the “number of pathogens active against” value (pathogens) was “four”.
COC(=O)CCCCCCC/C=C\CCCCCCC(C)OC1OC(CO)C(O)C(O)C1OC1OC(CO)C(O)C(O)C1O (centres unmarked) [SL-E-1, sophorolipid methyl ester] gave an MIC (Phytophthoracapsici) of 1250 µg/mL (≈ 1960 µM), an MIC (A. solani; [2]) of 2500 µg/mL (≈ 3930 µM) and an MIC (Fusarimoxysporium) of 2500 µg/mL (≈ 3930 µM). For the same compound, the MIC100 (Rhodoccocuserythropolis) was 5000 µg/mL (≈ 7850 µM), the MIC100 (Eserichia coli) was 1670 µg/mL (≈ 2620 µM) and the MIC100 (Moraxella) was 61.7 µg/mL (≈ 96.9 µM). For the same compound, the “number of pathogens active against” value (pathogens) was “three”, the MIC100 (Ralstoniaeutropha) was 5000 µg/mL (≈ 7850 µM) and the MIC100 (Salmonella choleraesuis) was 1670 µg/mL (≈ 2620 µM).
In the case of CC(CCCCCC/C=C\CCCCCCCC(=O)O)OC1OC(CO)C(O)C(O)C1OC1OC(CO)C(O)C(O)C1O (centres unmarked) [SL-A-4], the MIC100 (Rhodoccocuserythropolis) is listed as 560 µg/mL (≈ 899 µM), the MIC100 (Eserichia coli) is listed as 5000 µg/mL (≈ 8030 µM) and the MIC100 (Moraxella) is listed as 5000 µg/mL (≈ 8030 µM). The MIC100 (Ralstoniaeutropha) was 5000 µg/mL (≈ 8030 µM) and the MIC100 (Salmonella choleraesuis) was 5000 µg/mL (≈ 8030 µM).
For CCCCOC(=O)CCCCCCC/C=C\CCCCCCC(C)OC1OC(COC(C)=O)C(O)C(O)C1OC1OC(COC(C)=O)C(O)C(O)C1O (centres unmarked) [SL-E-8], the MIC (A. solani; [2]) was 1250 µg/mL (≈ 1640 µM) and the “number of pathogens active against” value (pathogens) was “one”.
Work on CC(CCCCCC/C=C\CCCCCCCC(=O)NCC[N+](C)(C)C)OC1OC(CO)C(O)C(O)C1OC1OC(CO)C(O)C(O)C1O (centres unmarked) [SL-AM-4, (Z)-2-(17-((4,5-dihydroxy-6-(hydroxymethyl)-3-((3,4,5-trihydroxy-6 (hydroxyl methyl)tetrahydro-2H-pyran-2-yl)oxy)tetrahydro-2H-pyran-2-yl)oxy)octadec-9-enamido)-N,N,N-trimethylethanaminium iodide] yielded an MIC (Botrytis cinerea; 168 h, absence of visible growth after 7 days, diluted from 2.5 to 0.0024 mg/ml, read-out: MIC) of 600 µg/mL, an MIC (A. alternate; A. alternate, absence of visible growth after 7 days, diluted from 2.5 to 0.0024 mg/ml, read-out: MIC) of 1250 µg/mL and an MIC (Alternariatomatophilia; 168 h, Alternariatomatophilia, absence of visible growth after 7 days, diluted from 2.5 to 0.0024 mg/ml, read-out: MIC) of 150 µg/mL. For the same compound, the MIC (A. solani; Alternaria solani, 168 h, A. solani, absence of visible growth after 7 days, diluted from 2.5 to 0.0024 mg/ml, read-out: MIC) was 600 µg/mL and the “number of pathogens active against” value (pathogens) was “four”.
Compound CC(CCCCCC/C=C\CCCCCCCC(=O)NCCO)OC1OC(CO)C(O)C(O)C1OC1OC(CO)C(O)C(O)C1O (centres unmarked) [SL-AM-1] has an MIC (Botrytis cinerea; absence of visible growth after 7 days, diluted from 2.5 to 0.0024 mg/ml) of 2500 µg/mL (≈ 3750 µM) and an MIC (Alternariatomatophilia; [1]) of 2500 µg/mL (≈ 3750 µM).
